Data from patent publication US8268369B2, “Compositions and methods for treating hypercholesterolemia using Ortanique peel extract” (The University of the West Indies, priority 2008, dated 2012).
Marks after values point to notes of the source that are not given here.

Legend:
[1] = test system: glutathione peroxidase; experiment: Glutathione peroxidase activity in organs of rats; format: in vivo; conditions: hypercholesterolemic rats
[2] = test system: glutathione reductase; experiment: Glutathione reductase activity in organs of rats; format: in vivo; conditions: hypercholesterolemic rats
[3] = test system: diet-induced hypercholesterolemic rats; experiment: Kidney function: serum creatinine and urea; conditions: comparison among the groups
[4] = test system: glutathione transferase; experiment: Glutathione transferase activity in organs of rats; format: in vivo; conditions: hypercholesterolemic rats

Q: `O=C(O)c1cccnc1` [niacin] was tested. Which “Glutathione Peroxidase Activity, Brain” value ([1]; brain) did it give?
A: 0.59 ± 0.18^a nmol/min/mg protein

Q: And the “Glutathione Peroxidase Activity, Heart” value ([1]; heart)?
A: 5.14 ± 0.63^a nmol/min/mg protein

Q: And the “Glutathione Peroxidase Activity, Kidney” value ([1]; kidney)?
A: 3.35 ± 1.30^a nmol/min/mg protein

Q: And the “Glutathione Peroxidase Activity, Spleen” value ([1]; spleen)?
A: 0.21 ± 0.034^a nmol/min/mg protein

Q: What about the “Glutathione Reductase Activity, Brain” value ([2]; brain) of the same compound?
A: 14.95 ± 1.67^a nmol/min/mg protein

Q: And the “Glutathione Reductase Activity, Heart” value ([2]; heart)?
A: 12.53 ± 0.85^a nmol/min/mg protein

Q: What about the “Glutathione Reductase Activity, Kidney” value ([2]; kidney) of the same compound?
A: 12.36 ± 0.10^a nmol/min/mg protein

Q: And the “Glutathione Reductase Activity, Spleen” value ([2]; spleen)?
A: 49.48 ± 3.32^a nmol/min/mg protein

Q: What about the “level of serum creatinine” value [3] of the same compound?
A: no significant differences

Q: And the “level of serum urea” value [3]?
A: no significant differences

Q: And the “Glutathione Transferase Activity, Brain” value ([4]; brain)?
A: 0.28 ± 0.04^a nmol/min/mg protein

Q: And the “Glutathione Transferase Activity, Heart” value ([4]; heart)?
A: 0.21 ± 0.011^a nmol/min/mg protein

Q: What about the “Glutathione Transferase Activity, Kidney” value ([4]; kidney) of the same compound?
A: 0.20 ± 0.05^b nmol/min/mg protein

Q: And the “Glutathione Transferase Activity, Spleen” value ([4]; spleen)?
A: 0.16 ± 0.07^b nmol/min/mg protein
